pIC50: −log10 of the molar value.
Assays:
Type in all cases: biochemical
[1] = target: CDK2 enzyme, complexed with cyclin A (Homo sapiens, UniProt P24941); assay: CDK2 cyclin dependent kinase assay, phosphorylation of synthetic peptide […] (33P-ATP filtration); conditions: Table 2; 0.1 mM ATP
Description: (§1) The assay mixture containing the inhibitor and CDK2 enzyme, complexed with cyclin A (0.4 U/ml) was mixed together in a microtiter plate in a final volume of 50 μl and incubated for 40 min at 30° C. The assay mixture contained 0.1 mM unlabeled ATP, 0.01 μCi/μl ^33P-γ-ATP, 0.03 mM peptide, 0.1 mg/ml BSA, 7.5 mM magnesium acetate, 50 mM HEPES-NaOH, pH 7.5. The reaction was stopped by adding 50 μl of 50 mM phosphoric acid. 90 μl of the mixture were transferred to a pre-wetted 96-well Multiscreen MAPHNOB filtration plate (Millipore) and filtered on a vacuum manifold. The filter plate was washed with three successive additions of 200 μl 50 mM phosphoric acid and then with 100 μl methanol. The filtration plate was dried for 10 min at 65° C., scintillant added and phosphorylated peptide quantified in a scintillation counter (Trilux, PerkinElmer).
HEPES is N-[2-hydroxyethyl]piperazine-N′-[2-ethanesulfonic acid]. BSA is bovine serum albumin.

[2] = target: T1, PDK1 enzyme (Homo sapiens, UniProt O15530); assay: PDK1 3'-phosphoinositide-dependent kinase assay, phosphorylation of synthetic peptide (33P-ATP filtration); conditions: Table 2; 0.01 mM ATP; read-out: PDK1 IC50
T1 sequence (O15530 1-556): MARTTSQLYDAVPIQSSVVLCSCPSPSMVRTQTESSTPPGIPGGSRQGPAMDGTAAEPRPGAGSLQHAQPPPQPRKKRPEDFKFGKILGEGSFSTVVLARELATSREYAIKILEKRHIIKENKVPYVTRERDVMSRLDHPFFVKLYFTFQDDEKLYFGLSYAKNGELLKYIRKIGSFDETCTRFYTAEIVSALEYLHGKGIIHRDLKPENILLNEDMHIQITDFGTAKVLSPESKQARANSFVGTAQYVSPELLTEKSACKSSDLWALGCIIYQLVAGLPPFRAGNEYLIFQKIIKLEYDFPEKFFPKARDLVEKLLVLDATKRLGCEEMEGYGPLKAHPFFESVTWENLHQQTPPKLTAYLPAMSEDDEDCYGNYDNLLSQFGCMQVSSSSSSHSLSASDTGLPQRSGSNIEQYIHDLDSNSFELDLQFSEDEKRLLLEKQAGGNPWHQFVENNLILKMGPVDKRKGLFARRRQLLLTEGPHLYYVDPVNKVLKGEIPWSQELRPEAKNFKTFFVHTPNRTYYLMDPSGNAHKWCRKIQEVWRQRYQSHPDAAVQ
Description: as §1, with “and PDK1 enzyme” for “and CDK2 enzyme, complexed with cyclin A (0.4 U/ml)”, “for 60” for “for 40”, “contained 0.01” for “contained 0.1”, “^33P-γ-ATP, 0.075” for “^33P-γ-ATP, 0.03”, “acetate, 0.05 M Tris.HCl,” for “acetate, 50 mM HEPES-NaOH,”, “pH 7.5, 0.5% 2-mercaptoethanol.” for “pH 7.5.”

[3] = target: T2, Chk1 (Homo sapiens, UniProt O14757); assay: Chk1 kinase assay, phosphorylation of Chktide (33P-ATP filtration); conditions: Table 2; 0.01 mM ATP; read-out: Chk1 IC50
T2 sequence (O14757 1-476): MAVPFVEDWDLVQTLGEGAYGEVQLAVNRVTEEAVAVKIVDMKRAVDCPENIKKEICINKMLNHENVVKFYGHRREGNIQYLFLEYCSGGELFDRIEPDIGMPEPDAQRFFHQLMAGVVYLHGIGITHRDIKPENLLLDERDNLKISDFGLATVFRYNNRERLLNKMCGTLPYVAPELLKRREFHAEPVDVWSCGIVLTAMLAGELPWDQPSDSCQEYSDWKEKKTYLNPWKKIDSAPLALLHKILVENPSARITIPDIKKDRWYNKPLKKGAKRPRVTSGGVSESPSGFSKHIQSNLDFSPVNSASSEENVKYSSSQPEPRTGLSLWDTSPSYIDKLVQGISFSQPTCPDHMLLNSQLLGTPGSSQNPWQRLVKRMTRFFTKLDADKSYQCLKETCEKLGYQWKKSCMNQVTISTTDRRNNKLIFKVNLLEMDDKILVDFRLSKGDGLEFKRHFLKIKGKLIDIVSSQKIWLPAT
Description: Assays for the Chk1 kinase activity were carried out by monitoring the phosphorylation of a synthetic peptide Chktide with the amino acid sequence, […]. The assay mixture containing the inhibitor and Chk1 enzyme was mixed together in a microtiter plate in a final volume of 50 μl and incubated for 40 minutes at 30° C.
The assay mixture contained 0.01 mM unlabeled ATP, 0.5 μCi ^33P-γ-ATP, 30 μM Chktide, 0.1 mg/ml BSA, 50 mM Hepes-NaOH pH 7.5 and 11 nM GST-Chk1 enzyme. The reaction was stopped by adding 50 μl of 50 mM phosphoric acid. 90 μl of the mixture was transferred to a pre-wetted 96-well Multiscreen MAPHNOB filtration plate (Millipore) and filtered on a vacuum manifold. The filter plate was washed with three successive additions of 200 μl 50 mM phosphoric acid and then with 100 μl methanol. The filtration plate was dried for 10 min at 65° C., scintillant added and phosphorylated peptide quantified in a scintillation counter (Trilux, PerkinElmer).

Row | pIC50 [1] | pIC50 [2] | pIC50 [3] | SMILES
1 | 3.81 | < 3.70 | < 3.70 | O=S(=O)(c1ccc(Nc2cc(Cl)nc3ncnn23)cc1)C(F)(F)F [Example 64]
2 | 6.03 | < 3.70 | < 3.70 | CCN(CC)c1cc(Nc2ccc(S(C)(=O)=O)cc2)n2ncnc2n1 [Example 65]
3 | 5.38 | < 3.70 | < 3.70 | CNc1cc(Nc2ccc(S(N)(=O)=O)cc2)n2ncnc2n1 [Example 66]
4 | 5.64 | < 3.70 | < 3.70 | NS(=O)(=O)c1ccc(Nc2cc(N3CCCC(O)C3)nc3ncnn23)cc1 (stereo not drawn) [Example 67]
5 | 5.13 | < 3.70 | < 3.70 | NS(=O)(=O)c1ccc(Nc2cc(N[C@H]3CC[C@H](O)CC3)nc3ncnn23)cc1 [Example 68]
6 | 5.74 | < 3.70 | < 3.70 | CC[C@H](CO)Nc1cc(Nc2ccc(S(C)(=O)=O)cc2)n2ncnc2n1 [Example 69]
7 | 5.57 | < 3.70 | < 3.70 | CCN(CC)c1cc(Nc2ccc(S(=O)(=O)C(F)(F)F)cc2)n2ncnc2n1 [Example 70]
8 | 6.23 | < 3.70 | < 3.70 | CCN(CC)c1cc(Nc2ccc(S(=O)(=O)N(C)C)cc2)n2ncnc2n1 [Example 71]
9 | 6.42 | < 3.70 | < 3.70 | CCN(CC)c1cc(Nc2ccc(S(=O)(=O)N3CCC(O)CC3)cc2)n2ncnc2n1 [Example 72]
10 | 4.65 | < 3.70 | < 3.70 | CN(C)CCN(C)c1cc(Nc2ccc(S(C)(=O)=O)cc2)n2ncnc2n1 [Example 73]
11 | 4.85 | < 3.70 | < 3.70 | CCCc1cc(Nc2ccc(S(C)(=O)=O)cc2)n2ncnc2n1 [Example 74]
12 | 4.20 | < 3.70 | < 3.70 | Clc1cc(Nc2ccccc2)n2ncnc2n1 [Example 75]
13 | < 3.70 | < 3.70 | < 3.70 | CC(C)(C)OC(=O)N1CCC(CNc2cc(Cl)nc3ncnn23)CC1 [Example 76]
14 | 3.90 | < 3.70 | < 3.70 | Cc1cc(Nc2ccc(S(C)(=O)=O)cc2)n2ncnc2n1 [Example 77]
15 | 5.13 | < 3.70 | < 3.70 | CC(C)c1cc(Nc2ccc(S(C)(=O)=O)cc2)n2ncnc2n1 [Example 78]
16 | 5.30 | < 3.70 | < 3.70 | CC[C@H](CO)Nc1cc(NCc2ccccc2)n2ncnc2n1 [Example 79]
17 | 4.87 | < 3.70 | < 3.70 | CCNc1cc(Nc2ccc(S(C)(=O)=O)cc2)n2ncnc2n1 [Example 80]
18 | 3.75 | < 3.70 | < 3.70 | Clc1cc(NCC2CCNCC2)n2ncnc2n1 [Example 81]
19 | 5.33 | < 3.70 | < 3.70 | CCN(CC)c1cc(Nc2ccccc2)n2ncnc2n1 [Example 82]
20 | 6.57 | 4.36 | 4.03 | CN(C)S(=O)(=O)c1ccc(Nc2cc(N[C@H]3CC[C@H](N)CC3)nc3ncnn23)cc1 [Example 83]

Row | pIC50 [1] | pIC50 [2] | pIC50 [3] | SMILES
21 | 6.60 | 3.97 | < 3.70 | CS(=O)(=O)c1ccc(Nc2cc(N[C@H]3CC[C@H](N)CC3)nc3ncnn23)cc1 [Example 84]
22 | 6.07 | 5.54 | < 3.70 | CCN(c1cc(Nc2ccc(S(C)(=O)=O)cc2)n2ncnc2n1)C(C)C [Example 85]
23 | 5.83 | < 3.70 | < 3.70 | CC(C)N(CCO)c1cc(Nc2ccc(S(C)(=O)=O)cc2)n2ncnc2n1 [Example 87]
24 | 5.22 | < 3.70 | 4.92 | O=S(=O)(c1ccccc1)c1ccc(Nc2cc(Cl)nc3ncnn23)cc1 [Example 88]
25 | 4.44 | < 3.70 | < 3.70 | CS(=O)(=O)c1ccc(Nc2cc(N3CCC(C(N)=O)CC3)nc3ncnn23)cc1 [Example 89]
26 | 3.99 | < 3.70 | < 3.70 | COc1cc(Nc2cc(Cl)nc3ncnn23)c(Cl)cc1C(=O)O [Example 90]
27 | 5.32 | < 3.70 | 4.85 | CN(C)c1ccc(Nc2cc(Nc3ccc(S(C)(=O)=O)cc3)n3ncnc3n2)cc1 [Example 91]
28 | 5.83 | < 3.70 | < 3.70 | CCN(CC)c1cc(Nc2ccc(C(N)=O)cc2)n2ncnc2n1 [Example 92]
29 | 6.17 | < 3.70 | < 3.70 | CCN(CC)c1cc(Nc2ccc(S(=O)(=O)c3ccccc3)cc2)n2ncnc2n1 [Example 93]
30 | 5.82 | < 3.70 | < 3.70 | CC(C)(C)CNc1cc(Nc2ccc(S(C)(=O)=O)cc2)n2ncnc2n1 [Example 94]
31 | 4.12 | < 3.70 | < 3.70 | CS(=O)(=O)c1ccc(CNc2cc(Cl)nc3ncnn23)cc1 [Example 95]
32 | 5.65 | < 3.70 | < 3.70 | CS(=O)(=O)c1ccc(Nc2cc(NC3CCCC3)nc3ncnn23)cc1 [Example 96]
33 | 4.69 | < 3.70 | < 3.70 | CS(=O)(=O)c1ccc(Nc2cc(N)nc3ncnn23)cc1 [Example 97]
34 | 6.59 | 4.85 | 5.66 | N[C@H]1CC[C@H](Nc2cc(Nc3ccc(S(=O)(=O)c4ccccc4)cc3)n3ncnc3n2)CC1 [Example 98]
35 | 4.59 | < 3.70 | < 3.70 | CS(=O)(=O)c1ccc(Nc2cc(NCC34CC5CC(CC(C5)C3)C4)nc3ncnn23)cc1 [Example 99]
36 | 5.53 | < 3.70 | < 3.70 | CS(=O)(=O)c1ccc(CNc2cc(N[C@H]3CC[C@H](N)CC3)nc3ncnn23)cc1 [Example 100]
37 | 4.82 | < 3.70 | < 3.70 | CS(=O)(=O)c1ccc(Nc2cc(NC3CC3)nc3ncnn23)cc1 [Example 101]
38 | 4.96 | 5.45 | 4.23 | CS(=O)(=O)c1ccc(Nc2cc(NC3C4CC5CC(C4)CC3C5)nc3ncnn23)cc1 (stereo not drawn) [Example 102]
39 | 4.53 | < 3.70 | < 3.70 | CCN(CC)c1cc(NCc2ccc(S(C)(=O)=O)cc2)n2ncnc2n1 [Example 103]
